Structures are written as SMILES. Counter-ions that a name gives are not always drawn. Like-named read-outs stand apart in the source and are kept apart here.

Broadly, the IC50 is the concentration at which inhibition is half-maximal.

For test [1], the target named is human serotonin reuptake transporter (Homo sapiens, UniProt P31645). In words: cell-based. Particulars: recombinant human serotonin transporter (SERT).
In test [2] the target is T1, human dopamine reuptake transporter (Homo sapiens, UniProt Q01959).
T1 construct: expressed in transfected cells; host or cells: CHO-K1 or HEK293
In words: cell-based. Particulars: recombinant human dopamine transporter (DAT); read-out: Human IC50 (nM) hDAT.

[3] abbreviates: read-out: Human IC50 (nM) hSERT.

Chain of human serotonin reuptake transporter (P31645 whole entry): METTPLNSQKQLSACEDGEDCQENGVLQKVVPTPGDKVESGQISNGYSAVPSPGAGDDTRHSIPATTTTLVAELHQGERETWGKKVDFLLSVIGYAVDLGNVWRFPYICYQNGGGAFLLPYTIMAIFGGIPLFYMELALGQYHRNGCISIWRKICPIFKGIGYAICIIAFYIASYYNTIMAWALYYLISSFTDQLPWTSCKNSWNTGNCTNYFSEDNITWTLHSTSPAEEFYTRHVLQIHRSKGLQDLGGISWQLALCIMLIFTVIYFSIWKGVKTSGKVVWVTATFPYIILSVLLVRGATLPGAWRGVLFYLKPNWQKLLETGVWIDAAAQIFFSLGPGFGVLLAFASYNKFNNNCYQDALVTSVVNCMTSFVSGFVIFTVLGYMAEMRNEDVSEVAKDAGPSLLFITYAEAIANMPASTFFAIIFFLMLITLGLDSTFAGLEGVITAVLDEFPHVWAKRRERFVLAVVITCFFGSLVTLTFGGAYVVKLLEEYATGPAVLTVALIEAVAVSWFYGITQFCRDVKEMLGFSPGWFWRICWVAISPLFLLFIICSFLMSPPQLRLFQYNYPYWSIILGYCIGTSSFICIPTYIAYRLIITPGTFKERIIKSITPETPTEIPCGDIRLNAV
T1 sequence (Q01959 whole entry): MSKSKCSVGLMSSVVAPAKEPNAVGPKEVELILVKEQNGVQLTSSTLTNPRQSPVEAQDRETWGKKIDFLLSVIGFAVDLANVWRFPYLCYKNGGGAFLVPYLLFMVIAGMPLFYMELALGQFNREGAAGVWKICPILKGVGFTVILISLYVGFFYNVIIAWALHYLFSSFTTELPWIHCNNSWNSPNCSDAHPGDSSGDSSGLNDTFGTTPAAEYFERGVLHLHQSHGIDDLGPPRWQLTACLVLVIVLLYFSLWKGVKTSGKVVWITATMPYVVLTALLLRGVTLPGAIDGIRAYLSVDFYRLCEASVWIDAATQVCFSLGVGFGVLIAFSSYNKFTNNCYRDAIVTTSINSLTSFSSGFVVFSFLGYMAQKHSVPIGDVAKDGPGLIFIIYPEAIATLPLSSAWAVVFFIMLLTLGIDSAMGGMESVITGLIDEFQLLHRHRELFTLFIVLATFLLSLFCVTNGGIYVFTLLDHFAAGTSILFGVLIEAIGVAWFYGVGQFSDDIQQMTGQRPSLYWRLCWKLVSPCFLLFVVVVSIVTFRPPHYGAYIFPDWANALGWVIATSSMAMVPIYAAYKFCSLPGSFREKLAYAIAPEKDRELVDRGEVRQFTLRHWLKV

With `CC(N(C)C)C1(c2ccc3ccccc3c2)CCC(C)(O)CC1` (single isomer, unassigned) [234 E2, 4-(1-(dimethylamino)ethyl)-1-methyl-4-(naphthalen-2-yl)cyclohexanol], the 50% inhibitory concentration (IC50) in test [1] (setting [3]) stood at 18 nM; in test [2], 21 nM.
For `COC1CCCC(CN)(c2ccc(Cl)c(Cl)c2)C1` (single isomer, unassigned) [Compound 194] the same measures were 330 nM and 2370 nM.
For the compound `CN1Cc2c(ccc3c2OCO3)C2(CCC(C)(O)CC2)C1` (single isomer, unassigned) [Compound 294, 4',8-dimethyl-8,9-dihydro-7H-spiro([1,3]dioxolo[4,5-h]isoquinoline-6,1'-cyclohexan]-4'-ol], the IC50 in test [1] (setting [3]) and in test [2] was more than 10000 nM in each case.
Consider `CN1Cc2c(ccc3c2OCO3)C2(CCC(C)(O)CC2)C1` (single isomer, unassigned) [Compound 295, 4',8-dimethyl-8,9-dihydro-7H-spiro [[1,3]dioxolo[4,5-h]isoquinoline-6,1'-cyclohexan]-4'-ol], for which the IC50 in test [1] (setting [3]) and in test [2] was more than 10000 nM each time.
For the compound `NCC1(c2ccc(Cl)c(Cl)c2)CCC1` [Compound 1, (1-(3,4-dichlorophenyl)cyclobutyl)methanamine], the IC50 in test [1] (setting [3]) was 1290 nM; in test [2], 103 nM.
Regarding `CSc1ccc(C2(CN)CCCCC2)cc1` [Compound 10, (1-(4-(methylthio)phenyl)cyclohexyl)methanamine], the IC50 in test [1] (Human IC50 (nM) hSERT) is 1910 nM; in test [2], 2930 nM.
Turning to `CC(N)C1(c2ccc(-c3ccoc3)cc2)CCCCC1` (stereo not shown) [Compound 20, 1-(1-(4-(furan-3-yl)phenyl)cyclohexyl)ethanamine], the values for the IC50 in test [1] (setting [3]) and in test [2] were 24 nM and 275 nM, respectively.
Regarding `NCC1(c2ccc(-c3cc(F)cc(F)c3)cc2)CCCCC1` [Compound 23, (1-(3',5'-difluorobiphenyl-4-yl)cyclohexyl)methanamine], the half-maximal inhibitory concentration (IC50) in test [1] (setting [3]) was determined as 62 nM; in test [2] it was 682 nM.
For the compound `NCC1(c2cccc(Cl)c2)CCCCC1` [Compound 28, (1-(3-chlorophenyl)cyclohexyl)methanamine hydrochloride], the IC50 came out at 4560 nM in test [1] (setting [3]) and 707 nM in test [2].
Consider `NCC1(c2ccc(Cl)cc2)CCCCC1` [Compound 29, (1-(4-chlorophenyl)cyclohexyl)methanamine hydrochloride], for which the IC50 worked out at 5240 nM in test [1] (setting [3]) and 195 nM in test [2].
For the compound `NCC1(c2ccc(C(F)(F)F)cc2)CCCCC1` [Compound 34, (1-(4-(trifluoromethyl)phenyl)-cyclohexyl)methanamine], the values for the IC50 in test [1] (Human IC50 (nM) hSERT) and in test [2] were more than 10000 nM and 5320 nM, respectively.
For `NCC1(c2ccc3c(c2)OCO3)CCCCC1` [Compound 35, (1-(benzo[d][1,3]dioxol-5-yl)cyclohexyl)methanamine] the same measures were more than 10000 nM and 4710 nM.
For `NCC1(c2cccc(C(F)(F)F)c2)CCCCC1` [Compound 36, (1-(3-(trifluoromethyl)phenyl)-cyclohexyl)methanamine], the IC50 is 6550 nM in test [1] (Human IC50 (nM) hSERT) and more than 10000 nM in test [2].
Consider `NCC1(c2cccc(F)c2)CCCCC1` [Compound 37, (1-(3-fluorophenyl)cyclohexyl)methanamine], for which the IC50 in test [1] (Human IC50 (nM) hSERT) and in test [2] was more than 10000 nM in each case.
Consider `NCC1(c2ccc3cc(F)ccc3c2)CCCCC1` [Compound 39, (1-(6-fluoronaphthalen-2-yl)cyclohexyl)methanamine], for which the IC50 amounted to 295 nM in test [1] (setting [3]) and 2240 nM in test [2].
For the compound `NCC1(c2ccc(F)c3ccccc23)CCCCC1` [Compound 40, (1-(4-fluoronaphthalen-1-yl)cyclohexyl)methanamine], the IC50 turned out to be 753 nM in test [1] (setting [3]) and 2320 nM in test [2].
In the case of `CNCC1(c2ccc(Cl)c(Cl)c2)CCC1` [Compound 42, 1-(1-(3,4-dichlorophenyl)cyclobutyl)-N-methylmethanamine], the IC50 in test [1] (setting [3]) is 935 nM; in test [2], 761 nM.
